Test results: ChEMBL document CHEMBL3351441, “The effect of pK(a) on pyrimidine/pyridine-derived histamine H4 ligands” (Bioorg Med Chem Lett, 2014)

How the values were obtained:
Histamine H4 receptor = Histamine H4 receptor (Homo sapiens, UniProt Q9H3N8); assay: Displacement of [3H]histamine from human recombinant histamine H4 receptor
[1] = Dissociation constant, pKa of the compound by Analiza PRO analyzer based method; assay type: physicochemical
[2] = Dissociation constant, pKa of the compound by potentiometric titration; assay type: physicochemical

Sequence of Histamine H4 receptor (Q9H3N8 whole entry): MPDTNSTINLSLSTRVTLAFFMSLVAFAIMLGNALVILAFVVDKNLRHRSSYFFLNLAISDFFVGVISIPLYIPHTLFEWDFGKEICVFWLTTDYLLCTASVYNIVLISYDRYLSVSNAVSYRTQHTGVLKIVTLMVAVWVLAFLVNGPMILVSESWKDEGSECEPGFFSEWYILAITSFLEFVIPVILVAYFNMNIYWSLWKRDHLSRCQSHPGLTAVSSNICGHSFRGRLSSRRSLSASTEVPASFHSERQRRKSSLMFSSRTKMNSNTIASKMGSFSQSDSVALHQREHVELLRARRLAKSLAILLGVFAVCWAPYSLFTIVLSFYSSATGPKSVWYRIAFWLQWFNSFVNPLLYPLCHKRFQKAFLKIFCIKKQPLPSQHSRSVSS

SMILES | Ki (Histamine H4 receptor) [nM] | pKa [1] | pKa [2]
Nc1cc(C2CCNCC2)cc(NC2CCCC2)n1 | 50 | 6.1 | 
Nc1nc(C2CCCC2)cc(N2CCNCC2)n1 |  | 7.9 | 
CN[C@@H]1CCN(c2cc(N)nc(C(C)C)n2)C1 | 320 | 6.3 | 
Nc1nc(NC2CCCC2)cc(C2CCNCC2)n1 | > 1000 | 6.1 | 
CN[C@@H]1CCN(c2cc(C(F)F)nc(N)n2)C1 | > 10000 | 4.4 | 
CN[C@@H]1CCN(c2cc(N)nc(NC(C)C)c2)C1 | 3.1 | 6.5 | 
CCc1cc(N2CC[C@@H](NC)C2)nc(N)n1 |  | 6.3 | 7.5
CN[C@@H]1CCN(c2cc(CCl)nc(N)n2)C1 | 92 | 6 | 
CN[C@@H]1CCN(c2ccnc(NC(C)C)n2)C1 |  | 6.4 | 
Nc1cc(N2CCNCC2)cc(NC2CCCC2)n1 | 2 | 6.5 | 
CN[C@@H]1CCN(c2cc(CF)nc(N)n2)C1 | 126 | 5.5 | 
CN[C@@H]1CCN(c2ccnc(C(C)C)n2)C1 | 460 | 6.5 | 
Nc1cc(C2CCNCC2)cc(OC2CCCC2)n1 | > 10000 | 4.7 | 
CN[C@@H]1CCN(c2cc(CC(F)(F)F)nc(N)n2)C1 | 11 | 5.4 | 
Nc1nc(C2CCCC2)cc(C2CCNCC2)n1 | 1550 | 4.5 | 
CN[C@@H]1CCN(c2ccnc(NC(C)C)c2)C1 |  | 6.6 | 
CN[C@@H]1CCN(c2cc(N)nc(NC(C)C)n2)C1 |  | 6.3 | 
CCc1cc(N2CC[C@@H](NC)C2)ncn1 | 456 |  | 5.9
CN[C@@H]1CCN(c2cc(C(F)(F)F)nc(N)n2)C1 | > 10000 | 3.1 | 3.1
CN[C@@H]1CCN(c2cc(CCC(F)(F)F)nc(N)n2)C1 |  | 7.8 | 
